Measurements as given in patent US20250206730A1 (AUTOTELIC BIO INC., priority 2022, published 2025).

How the values were obtained:
[1] = tested on: TGF-β signaling; assay: Assay for evaluating cellular inhibition of TGF-β signaling, HEK293 (SBE reporter) luciferase reporter; format: cell-based; details: Homo sapiens; HEK293 (SBE reporter) stable cells, 0.5% FBS, 2 h pre-treatment, TGF-β1 2 ng/mL 24 h; read-out: IC50 HEK 293 Cell
Method: [Example 2] Assay for Evaluating Cellular Inhibition of TGF-β Signaling
4T1 (SBE-luc2P) transient pool that have SBE-luc2P (hygro) expression plasmid or HEK293 (SBE reporter) stable cells (BPS bioscience) were seeded at 6×10^3 cells/well or 2.5×10^4 cells/well in 96-well plate, respectively. 4T1 (SBE-luc2P) transient pool were pre-treated with novel compound synthesized in Example 1 above in 0.2% FBS at approximately 60% confluence at 37° C. in 5% CO2. Also, HEK293 (SBE reporter) stable cells were pre-treated with each test compounds of formula in 0.5% FBS at approximately 80% confluence at 37° C. in 5% CO2. After 2 hours, cells were treated with TGF-β1 (2 ng/mL) for 24 h at 37° C. in 5% CO2. Cell lysates were prepared using Luciferase Assay (Promega) according to the manufacturer's instruction, and luminescence was measured by a plate reader, Biotek Synergy H1 (Vermont, USA).

[2] = target: T1, ALK5 kinase (Homo sapiens, UniProt P36897); assay: LanthaScreen Eu Kinase Binding Assay; details: Kinase Tracer 178, Eu-anti-GST Antibody, read-out: IC50 Enzyme
T1 sequence (P36897 34-503): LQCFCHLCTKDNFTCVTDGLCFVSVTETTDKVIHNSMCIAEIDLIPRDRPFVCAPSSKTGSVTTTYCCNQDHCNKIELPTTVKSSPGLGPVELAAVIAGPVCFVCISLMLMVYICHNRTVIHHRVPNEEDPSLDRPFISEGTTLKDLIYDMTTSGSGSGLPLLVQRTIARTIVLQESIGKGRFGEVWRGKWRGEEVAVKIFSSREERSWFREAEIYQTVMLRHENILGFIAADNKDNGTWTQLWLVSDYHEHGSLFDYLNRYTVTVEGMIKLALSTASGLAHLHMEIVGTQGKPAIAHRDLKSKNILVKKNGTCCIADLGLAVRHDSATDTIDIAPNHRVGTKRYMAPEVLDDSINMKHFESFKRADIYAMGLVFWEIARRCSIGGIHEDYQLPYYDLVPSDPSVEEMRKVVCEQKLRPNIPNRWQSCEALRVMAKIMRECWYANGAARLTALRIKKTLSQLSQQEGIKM
Outline: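 Compound (1% DMSO final) preincubated 30 min at RT with GST-tagged ALK5, then Eu-anti-GST antibody and Kinase Tracer 178 added for 60 min at RT. TR-FRET read at 340 nm excitation; 665/615 nm emission ratio falls as compound binding rises.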

| IC50 [1] | IC50 [2] | SMILES |
| --- | --- | --- |
| < 0.1 µM | < 0.1 µM | Cc1cccc(-c2nc(C3CC3)sc2Oc2ccnc(Nc3cccc(S(N)(=O)=O)c3)c2)n1 [A-277, 3-((4-((2-Cyclopropyl-4-(6-methylpyridin-2-yl)thiazol-5-yl)oxy)pyridin-2-yl)amino)benzenesulfonamide] |
| < 0.1 µM | < 0.1 µM | CCc1nc(-c2cccc(C)n2)c(Oc2ccnc(Nc3ccnc(C(N)=O)c3)c2)s1 [A-264, 4-((4-((2-Ethyl-4-(6-methylpyridin-2-yl)thiazol-5-yl)oxy)pyridin-2-yl)amino)picolinamide] |
| < 0.1 µM | < 0.1 µM | CCc1nc(-c2cccc(C)n2)c(Oc2ccnc(Nc3ccc(C(=O)NCCN(C)C)cn3)c2)s1 [A-269, N-(2-(Dimethylamino)ethyl)-6-((4-((2-ethyl-4-(6-methylpyridin-2-yl)thiazol-5-yl)oxy)pyridin-2-yl)amino)nicotinamide] |
| < 0.1 µM | < 0.1 µM | Cc1cccc(-c2nc(C3CC3)sc2Oc2ccnc(Nc3cc(C(N)=O)ccn3)c2)n1 [A-276, 2-((4-((2-Cyclopropyl-4-(6-methylpyridin-2-yl)thiazol-5-yl)oxy)pyridin-2-yl)amino)isonicotinamide] |
| < 0.1 µM | < 0.1 µM | Cc1cccc(-c2nc(C3CC3)sc2Oc2ccnc(Nc3cccc(C(N)=O)n3)c2)n1 [A-278, 6-((4-((2-Cyclopropyl-4-(6-methylpyridin-2-yl)thiazol-5-yl)oxy)pyridin-2-yl)amino)picolinamide] |
| < 0.1 µM | < 0.1 µM | CCc1nc(-c2cccc(C)n2)c(Oc2ccnc(Nc3ccc(C(=O)OCCN(C)C)cn3)c2)s1 [A-271, 2-(Dimethylamino)ethyl 6-((4-((2-ethyl-4-(6-methylpyridin-2-yl)thiazol-5-yl)oxy)pyridin-2-yl)amino)nicotinate] |
| < 0.1 µM | < 0.1 µM | O=C(O)c1ccc(Nc2cc(Oc3oc(C4CC4)nc3-c3ccccc3)ccn2)nc1 [A-293, 6-((4-((2-Cyclopropyl-4-phenyloxazol-5-yl)oxy)pyridin-2-yl)amino)nicotinic acid] |
| < 0.1 µM | < 0.1 µM | CNC(=O)c1ccnc(Nc2cc(Oc3sc(C4CC4)nc3-c3cccc(C)n3)ccn2)c1 [A-280, 2-((4-((2-Cyclopropyl-4-(6-methylpyridin-2-yl)thiazol-5-yl)oxy)pyridin-2-yl)amino)-N-methylisonicotinamide] |
| < 0.1 µM | < 0.1 µM | O=C(O)c1ccc(Nc2cc(Oc3oc(C4CC4)nc3-c3ccccc3)ccn2)cc1 [A-295, 4-((4-((2-Cyclopropyl-4-phenyloxazol-5-yl)oxy)pyridin-2-yl)amino)benzoic acid] |
| < 0.1 µM |  | CNC(=O)c1cccc(Nc2cc(Oc3oc(C4CC4)nc3-c3ccccc3)ccn2)c1 [A-297, 3-((4-((2-Cyclopropyl-4-phenyloxazol-5-yl)oxy)pyridin-2-yl)amino)-N-methylbenzamide] |
| < 0.1 µM |  | CCc1nc(-c2ccccc2)c(Oc2ccnc(Nc3ccc(N4CCC(NC)C4)cn3)c2)s1 (stereo not shown) [A-312, 4-((2-Ethyl-4-phenylthiazol-5-yl)oxy)-N-(5-(3-(methylamino)pyrrolidin-1-yl)pyridin-2-yl)pyridin-2-amine] |
| < 0.1 µM |  | CCc1nc(-c2ccccc2)c(Oc2ccnc(Nc3ccc(NCCN4CCN(CC)CC4)cn3)c2)s1 [A-211, N^2-(4-((2-Ethyl-4-phenylthiazol-5-yl)oxy)pyridin-2-yl)-N^5-(2-(4-ethylpiperazin-1-yl)ethyl)pyridine-2,5-diamine] |
| < 0.1 µM |  | CCc1nc(-c2ccccc2)c(Oc2ccnc(Nc3ccc(N4CCC(N)C4)cn3)c2)s1 (stereo not shown) [A-204, 5-(3-Aminopyrrolidin-1-yl)-N-(4-((2-ethyl-4-phenylthiazol-5-yl)oxy)pyridin-2-yl)pyridin-2-amine] |
| < 0.1 µM | < 0.1 µM | NC(=O)c1ccc(Nc2cc(Oc3oc(C4CC4)nc3-c3ccccc3)ccn2)nc1 [A-294, 6-((4-((2-Cyclopropyl-4-phenyloxazol-5-yl)oxy)pyridin-2-yl)amino)nicotinamide] |
| < 0.1 µM |  | CCc1nc(-c2ccccc2)c(Oc2ccnc(Nc3ccc(NCCN4CCN(C(C)C)CC4)cc3)c2)s1 [A-205, N^1-(4-((2-Ethyl-4-phenylthiazol-5-yl)oxy)pyridin-2-yl)-N^4-(2-(4-isopropylpiperazin-1-yl)ethyl)benzene-1,4-diamine] |
| < 0.1 µM |  | CCc1nc(-c2ccccc2)c(Oc2ccnc(Nc3ccc(C(=O)NCCN4CCN(C)CC4)cn3)c2)s1 [A-201, 6-((4-((2-Ethyl-4-phenylthiazol-5-yl)oxy)pyridin-2-yl)amino)-N-(2-(4-methylpiperazin-1-yl)ethyl)nicotinamide] |
| < 0.1 µM |  | CCc1nc(-c2ccccc2)c(Oc2ccnc(Nc3ccc(NCCN4CCN(C)CC4)cn3)c2)s1 [A-209, N^2-(4-((2-Ethyl-4-phenylthiazol-5-yl)oxy)pyridin-2-yl)-N^5-(2-(4-methylpiperazin-1-yl)ethyl)pyridine-2,5-diamine] |
| < 0.1 µM | < 0.1 µM | CNC(=O)c1cccc(Nc2cc(Oc3sc(C4CC4)nc3-c3cccc(C)n3)ccn2)n1 [A-279, 6-((4-((2-Cyclopropyl-4-(6-methylpyridin-2-yl)thiazol-5-yl)oxy)pyridin-2-yl)amino)-N-methylpicolinamide] |

| SMILES | IC50 [1] | IC50 [2] |
| --- | --- | --- |
| CCc1nc(-c2cccc(C)n2)c(Oc2ccnc(Nc3ccc(C(=O)OCC4CC4)cn3)c2)s1 [A-270] | < 0.1 µM | < 0.1 µM |
